# In patent US10653694B2, “Cytotoxic compounds which are inhibitors of the polymerisation of tubulin” (CENTRE NATIONAL DE LA RECHERCHE SCIENTIFIQUE (CNRS), priority 2014, dated 2020):
# Like-named read-outs stand apart in the source and are kept apart here.
# Tests used:
# tubulin [1] = settings: binding to the colchicine site; read-out: IC50 (inhibits tubulin assembly into microtubules); cited from earlier work
# many human cancer lines = settings: read-out: IC50 (cytotoxic); cited from earlier work
# tubulin [2] = assay: Inhibition of polymerisation of tubulin (IPT); assay type: biochemical, sheep
# Excerpt: (§1) Brown oil, 89%. Rf 0.3 (Cyclohexane/EtOAc, 7/3). IR (neat, cm^−1): 1609, 1593, 1564, 1428, 1205, 1157. ^1H NMR (300 MHz, CDCl3): 8.08 (d, 1H, J=8.2 Hz), 7.90 (d, 1H, J=8.4 Hz), 7.77-7.72 (ddd, 1H, J=8.2 Hz, J=6.9 Hz, J=1.3 Hz), 7.44 (ddd, 1H, J=8.3 Hz, J=7.0 Hz, J=1.0 Hz), 6.49 (d, 2H, J=2.2 Hz), 6.27 (t, 1H, J=2.2 Hz), 4.90 (q, 1H, J=6.9 Hz), 3.73 (s, 6H), 2.91 (s, 3H), 1.78 (d, 3H, J=6.9 Hz). ^13C NMR (75 MHz, CDCl3): 171.8, 163.8, 161.0 (2C), 150.7, 146.9, 133.2, 128.5, 126.6, 124.7, 121.6, 106.2 (2C), 98.0, 55.4 (2C), 43.4, 26.9, 21.1. m/z MS (APCI^+): 309 (M+H)^+. Cytotoxicity Protocol. U87, H1299 and MDA-MB231 cells are grown in Dulbecco minimal essential medium (DMEM) containing 4.5 g/L glucose and supplemented with 10% foetal calf serum and 1% glutamine. K562 and HCT116 cells are grown in RPMI 1640 medium containing 10% foetal calf serum and 1% glutamine. All the cell lines are maintained in culture at 37° C. in a humid atmosphere containing 5% CO2. The cells are inoculated in 96-well culture plates in an amount of 5000 cells per well in 50 μL of culture medium. After 24 hours of culture, the molecule to be tested, dissolved in DMSO and diluted 1/1000 in suitable culture medium, is added in each well in an amount of 50 μL per well. After 72 hours of incubation, 20 μL of resazurin is added in each well. After 1 hour of incubation, emitted fluorescence is measured at 590 nm after excitation at 560 nm using the Victor fluorescence reader (Perkin-Elmer, USA). Each concentration is tested three times and each experiment is repeated three times. Protocol for Inhibition of Polymerisation of Tubulin. When tubulin is placed at a temperature of 0° C., it is in the form of free dimers. […] The IPT of the various synthesized analogues was determined on a soluble tubulin according to the method of Shelanski^7 from sheep brains where it constitutes 20 to 25% of soluble proteins. The “antitubulin” activity is evaluated according to the method of Gaskin^8 by measuring turbidity, which is proportional to the microtubule concentration in the suspension. Turbidity is measured by absorption of the suspension at 350 nm using a spectrophotometer fitted with a cell thermostatically-controlled at 37° C. The various samples were dissolved in DMSO and incubated 10 minutes at 37° C. then 5 minutes at 0° C. The tubulin assembly and disassembly curves are obtained by absorption kinetics at 350 nm as a function of time. The IC50 determined graphically is defined as the concentration of inhibitor necessary to decrease by 50% the maximum rate of assembly of the control tubulin. In Vitro Biological Study of Compounds of the Present Invention
# The most cytotoxic compounds were selected for tests of inhibition of polymerisation of tubulin. These tests were carried out under the direction of Dr J. Dubois at Gif-sur-Yvette, France. Tubulin is purified from ewe brains according to the method of Shelanski^9 by two assembly-disassembly cycles. The stock solution (15-20 mg/mL), stored at −196° C., is thawed and diluted in assembly buffer (0.1 M MES, 0.5 mM MgCl2, 1 mM EGTA, and 1 mM GTP, pH 6.6) to have a final concentration of 10 μM. Tubulin assembly is monitored by fluorescence on 96-well plates according to the method of Barron et al.^10 Inhibitor (DMSO, 1 μL) is added to the tubulin solution (10 μM, 100 μL per well) and the solution is incubated 45 minutes at room temperature. GTP (1 mM final) is then added, the solution is mixed rapidly and fluorescence (λex=350 nm, λem=440 nm) is measured on a Wallac Victor fluorometer (Perkin Elmer). The inhibition of 50% of the maximum rate of assembly (IC50) is determined in duplicate or triplicate on 10 concentrations bracketing the IC50.
# [3] = system: endothelial cell proliferation; settings: inhibition of endothelial cell proliferation; cited from earlier work
# [4] = system: K562 (chronic myeloid leukaemia); assay: Cytotoxicity on K562 line (resazurin, 72 h); assay type: cell-based; settings: Homo sapiens
# Excerpt: as §1
# (§2) Compounds I-15, I-16 and I-19 were also evaluated on a K562 chronic myeloid leukaemia line and a K562R imatinib-resistant chronic myeloid leukaemia line.
# [5] = system: HCT116 human cancer cell line (colorectal cancer); assay: Cytotoxicity on HCT116 human cancer cell line (resazurin, 72 h); assay type: cell-based
# Excerpt: as §1
# The cytotoxic activity of the compounds was studied in vitro principally on the HCT116 human cancer cell line (colorectal cancer). The line selected for this study was incubated at 37° C. in the presence of one of the compounds added in the culture medium at various concentrations. The inhibitory concentration inducing the death of 50% of the cells (IC50) was determined after 72 hours of incubation (Table 1) for each compound. The set of experiments carried out made it possible to determine the degree of toxicity of the compounds tested by taking isoCA-4 as the reference. […] Lastly, when these first results are examined, it appears that the reduction of the double bond located between the two aromatic nuclei yields “reduced” type II derivatives about 10 times less cytotoxic than their precursors I as we had already noted during the reduction of isoCA-4 derivatives to isoerianin-type derivatives.
# [6] = system: H1299 (non-small-cell lung cancer); assay: Cytotoxicity on H1299 line (resazurin, 72 h); assay type: cell-based; settings: Homo sapiens, NCI-H1299
# Excerpt: as §1, §2
# [7] = system: K562R imatinib-resistant chronic myeloid leukaemia line; assay: Cytotoxicity on K562R line (72 h); assay type: cell-based; settings: Homo sapiens, K-562R; Table 2; 50% cell death after 72 hours of incubation
# Excerpt: Brown oil, 89%. Rf 0.3 (Cyclohexane/EtOAc, 7/3). IR (neat, cm^−1): 1609, 1593, 1564, 1428, 1205, 1157. ^1H NMR (300 MHz, CDCl3): 8.08 (d, 1H, J=8.2 Hz), 7.90 (d, 1H, J=8.4 Hz), 7.77-7.72 (ddd, 1H, J=8.2 Hz, J=6.9 Hz, J=1.3 Hz), 7.44 (ddd, 1H, J=8.3 Hz, J=7.0 Hz, J=1.0 Hz), 6.49 (d, 2H, J=2.2 Hz), 6.27 (t, 1H, J=2.2 Hz), 4.90 (q, 1H, J=6.9 Hz), 3.73 (s, 6H), 2.91 (s, 3H), 1.78 (d, 3H, J=6.9 Hz). ^13C NMR (75 MHz, CDCl3): 171.8, 163.8, 161.0 (2C), 150.7, 146.9, 133.2, 128.5, 126.6, 124.7, 121.6, 106.2 (2C), 98.0, 55.4 (2C), 43.4, 26.9, 21.1. m/z MS (APCI^+): 309 (M+H)^+. Cytotoxicity Protocol. U87, H1299 and MDA-MB231 cells are grown in Dulbecco minimal essential medium (DMEM) containing 4.5 g/L glucose and supplemented with 10% foetal calf serum and 1% glutamine. K562 and HCT116 cells are grown in RPMI 1640 medium containing 10% foetal calf serum and 1% glutamine. All the cell lines are maintained in culture at 37° C. in a humid atmosphere containing 5% CO2. The cells are inoculated in 96-well culture plates in an amount of 5000 cells per well in 50 μL of culture medium. After 24 hours of culture, the molecule to be tested, dissolved in DMSO and diluted 1/1000 in suitable culture medium, is added in each well in an amount of 50 μL per well. […] After 1 hour of incubation, emitted fluorescence is measured at 590 nm after excitation at 560 nm using the Victor fluorescence reader (Perkin-Elmer, USA). […] The IPT of the various synthesized analogues was determined on a soluble tubulin according to the method of Shelanski^7 from sheep brains where it constitutes 20 to 25% of soluble proteins. The “antitubulin” activity is evaluated according to the method of Gaskin^8 by measuring turbidity, which is proportional to the microtubule concentration in the suspension. Turbidity is measured by absorption of the suspension at 350 nm using a spectrophotometer fitted with a cell thermostatically-controlled at 37° C. […]
# as §2
# [8] = in the presence of hepatocytes; cited from earlier work
# [9] = Table 3, inhibition of 50% of the maximum rate of assembly, tubulin 10 μM, read-out: IPT (IC50)
# [10] = K562, Table 2, 50% cell death after 72 hours of incubation, read-out: K562 IC50
# [11] = range given jointly for K562 and H1299 lines, read-out: IC50 (cytotoxicity, K562)
# [12] = Homo sapiens, HCT-116, 72 hours of incubation, read-out: IC50 (cytotoxicity, HCT116)
# [13] = Homo sapiens, HCT-116, Table 1, concentration inducing 50% cell death after 72 hours of incubation, read-out: HCT116 IC50
# [14] = Table 2, 50% cell death after 72 hours of incubation, read-out: H1299 IC50
# [15] = range given jointly for K562 and H1299 lines, read-out: IC50 (cytotoxicity, H1299)
# [16] = Homo sapiens, HCT-116, Table 2, 50% cell death after 72 hours of incubation, read-out: HCT116 IC50
Compound,IC50 (tubulin [2]; [9]),"IC50 [4, 10]","IC50 [5, 12]","IC50 [5, 13]",further results
"COc1ccc(/C=C\c2cc(OC)c(OC)c(OC)c2)cc1O [CA-4, combretastatin A-4]",[…],–,–,–,IC50 (tubulin [1]): […]; IC50 (many human cancer lines): 1 to 2 nM; anti-vascular activity in vitro (in words) [3]: nanomolar
"C=C(c1ccc(OC)cc1)c1nc(C)nc2ccccc12 [Compound I-1, 4-[1-(4-Methoxy-phenyl)-vinyl]-2-methyl-quinazoline]",1800 nM,34 nM,40 nM,38 nM,"IC50 [4, 11]: 22 to 38 nM; IC50 [6, 14]: 22 nM; IC50 [6, 15]: 22 to 38 nM"
"C=C(c1ccc(OC)c(OC)c1)c1nc(C)nc2ccccc12 [Compound I-2, 4-[1-(3,4-Dimethoxy-phenyl)-vinyl]-2-methyl-quinazoline]",–,–,–,460 nM,–
"C=C(c1ccc(OC(F)(F)F)cc1)c1nc(C)nc2ccccc12 [Compound I-3, 2-Methyl-4-(1-(4-(trifluoromethoxy)phenyl)vinyl)quinazoline]",–,–,–,2300 nM,–
"C=C(c1ccc(SC)cc1)c1nc(C)nc2ccccc12 [Compound I-4, 2-Methyl-4-(1-(4-(methylthio)phenyl)vinyl)quinazoline]",2900 nM,–,–,52 nM,–
"C=C(c1ccc(OC)c(F)c1)c1nc(C)nc2ccccc12 [Compound I-5, 4-[1-(3-Fluoro-4-methoxy-phenyl)-vinyl]-2-methyl-quinazoline]",1000 nM,–,< 20 nM,18 nM,–
"C=C(c1ccc(OC)c(O)c1)c1nc(C)nc2ccccc12 [Compound I-6, 2-Methoxy-5-(1-(2-methylquinazolin-4-yl)vinyl)phenol]",–,–,< 20 nM,10 nM,IC50 (tubulin [2]; read-out: IC50 (inhibition of polymerisation of tubulin)): 600 nM
"C=C(c1ccc(OC)c(N)c1)c1nc(C)nc2ccccc12 [Compound I-7, 2-Methoxy-5-(1-(2-methylquinazolin-4-yl)vinyl)aniline]",2300 nM,–,< 20 nM,10 nM,–
"C=C(c1ccc2ccccc2c1)c1nc(C)nc2ccccc12 [Compound I-8, 2-Methyl-4-(1-(naphthalen-2-yl)vinyl)quinazoline]",2200 nM,–,–,130 nM,melting point: 113.6 °C
"C=C(c1ccc(OC)cc1)c1nc(Cl)nc2ccccc12 [Compound I-10, 2-Chloro-4-[1-(4-methoxy-phenyl)-vinyl]-quinazoline]",1900 nM,38 nM,40 nM,34 nM,"IC50 [4, 11]: 22 to 38 nM; IC50 [6, 14]: 25 nM; IC50 [6, 15]: 22 to 38 nM"
"C=C(c1ccc(OC)c(OC)c1)c1nc(Cl)nc2ccccc12 [Compound I-11, 2-Chloro-4-[1-(3,4-dimethoxy-phenyl)-vinyl]-quinazoline]",–,–,–,700 nM,–
"C=C(c1cc(OC)c(OC)c(OC)c1)c1nc(Cl)nc2ccccc12 [Compound I-12, 2-Chloro-4-[1-(3,4,5-trimethoxy-phenyl)-vinyl]-quinazoline]",–,–,–,900 nM,melting point: 135 to 136 °C
"C=C(c1ccc(OC)c(C#CCO)c1)c1nc(C)nc2ccccc12 [Compound I-15, 3-(2-Methoxy-5-(1-(2-methylquinazolin-4-yl)vinyl)phenyl)prop-2-yn-1-ol]",1200 nM,8 nM,< 20 nM,–,"IC50 [7]: ≤ 1 nM; IC50 [5, 16]: 1.5 nM"
"C=C(c1ccc(OC)cc1)c1cc(C#N)nc2ccccc12 [Compound I-16, 4-(1-(4-Methoxyphenyl)vinyl)quinoline-2-carbonitrile]",960 nM,9 nM,< 20 nM,–,"IC50 [7]: ≤ 1 nM; IC50 [5, 16]: 1.6 nM"
"C=C(c1ccc(OC)cc1)c1cc(Cl)c2ccccc2n1 [Compound I-17, 4-Chloro-2-(1-(4-methoxyphenyl)vinyl)quinoline]",–,–,–,95 nM,–
"C=C(c1ccc(OC)cc1)c1nc(C)cc2ccccc12 [Compound I-18, 1-(1-(4-Methoxyphenyl)vinyl)-3-methylisoquinoline]",–,–,–,87 nM,–
"C=C(c1ccc(OC)cc1)c1cc(C)nc2ccccc12 [Compound I-19, 4-(1-(4-Methoxyphenyl)vinyl)-2-methylquinoline]",1090 nM,17 nM,< 20 nM,≤ 1 nM,"IC50 [7]: 0.7 nM; IC50 ([5]; Table 2, 50% cell death after 72 hours of incubation, read-out: HCT116 IC50): ≤ 1 nM; cytotoxic activities (in words) ([5]; cell line not given): sub-nanomolar"
"COc1ccc(C(C)c2nc(C)nc3ccccc23)cc1 (stereo not drawn) [II-1, 4-[1-(4-Methoxy-phenyl)-ethyl]-2-methyl-quinazoline]",–,–,–,250 nM,–
"COc1ccc(C(C)c2nc(C)nc3ccccc23)cc1OC (stereo not drawn) [II-2, 4-[1-(3,4-Dimethoxy-phenyl)-ethyl]-2-methyl-quinazoline]",–,–,–,950 nM,–
"C=C(c1ccc(OC)c(O)c1)c1cc(OC)c(OC)c(OC)c1 [isoCA-4, Isocombretastatin A-4, reference compound]",1000 nM,4 nM,–,–,"metabolized [8]: < 10%; IC50 ([5]; Homo sapiens, HCT-116, 72 h, read-out: HCT116 IC50 (nM)): 2 nM; IC50 [6, 14]: 5 nM"
